Tests used:
[1] = biological target: T1, hα2C receptor (Homo sapiens, UniProt P18825); test: Radioligand binding experiment for α2C-adrenoceptor ([3H]raulwolscine, CHO cell membranes); settings: [3H]raulwolscine binding; for IC50: read-out: h-α2C pIC50 (converted)
T1 construct: expressed in transfected cells; host or cells: CHO cells, stably transfected; membrane preparation
T1 sequence (P18825 1-462): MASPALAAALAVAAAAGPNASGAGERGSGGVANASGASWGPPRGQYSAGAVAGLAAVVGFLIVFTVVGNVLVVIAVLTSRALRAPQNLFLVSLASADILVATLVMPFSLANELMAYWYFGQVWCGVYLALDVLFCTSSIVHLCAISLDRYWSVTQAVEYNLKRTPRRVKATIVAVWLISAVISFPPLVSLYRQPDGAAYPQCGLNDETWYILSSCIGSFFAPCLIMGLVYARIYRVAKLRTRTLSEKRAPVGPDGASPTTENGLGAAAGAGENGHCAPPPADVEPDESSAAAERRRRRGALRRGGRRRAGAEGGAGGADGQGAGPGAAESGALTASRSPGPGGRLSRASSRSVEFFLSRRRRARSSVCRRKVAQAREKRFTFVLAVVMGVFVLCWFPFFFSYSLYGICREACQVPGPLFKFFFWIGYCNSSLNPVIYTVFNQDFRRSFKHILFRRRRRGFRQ

[2] = biological target: T2, 5HT-Transporter (Homo sapiens, UniProt P31645); test: Binding experiment for the 5HT-transporter ([3H]paroxetine, human platelet membranes); settings: [3H]paroxetine 0.5 nM; for IC50: read-out: h-5HTT pIC50 (converted)
T2 construct: Human platelet membranes (Oceanix Biosciences Corporation, Hanover, Md., USA) were thawed; tissue Oceanix Biosciences Corporation, Hanover, Md., USA; host or cells: human platelet membranes
Procedure, shortened: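 Filter-bound radioactivity from human platelet membranes incubated with [3H]paroxetine and test compound (buffer Tris-HCl 50 mM, 120 mM NaCl, 5 mM KCl) was counted.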

[3] = biological target: T3, hα2A receptor (Homo sapiens, UniProt P08913); test: Radioligand binding experiment for α2A-adrenoceptor ([3H]raulwolscine, CHO cell membranes); settings: [3H]raulwolscine binding; for IC50: read-out: h-α2A pIC50 (converted)
T3 construct: expressed in transfected cells; host or cells: CHO cells, stably transfected; membrane preparation
T3 sequence (P08913 1-465): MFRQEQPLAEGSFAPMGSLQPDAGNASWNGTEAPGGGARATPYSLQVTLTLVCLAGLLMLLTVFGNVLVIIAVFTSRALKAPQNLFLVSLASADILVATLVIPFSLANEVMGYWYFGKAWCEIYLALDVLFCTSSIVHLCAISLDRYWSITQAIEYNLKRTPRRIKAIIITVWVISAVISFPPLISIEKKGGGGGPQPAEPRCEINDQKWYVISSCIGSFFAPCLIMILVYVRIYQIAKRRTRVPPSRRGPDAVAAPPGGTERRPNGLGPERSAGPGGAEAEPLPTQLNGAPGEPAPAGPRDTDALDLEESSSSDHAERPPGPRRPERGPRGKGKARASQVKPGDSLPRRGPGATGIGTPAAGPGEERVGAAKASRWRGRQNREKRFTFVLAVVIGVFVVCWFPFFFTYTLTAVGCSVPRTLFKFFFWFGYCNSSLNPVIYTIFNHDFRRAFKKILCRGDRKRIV

T2 sequence (P31645 whole entry): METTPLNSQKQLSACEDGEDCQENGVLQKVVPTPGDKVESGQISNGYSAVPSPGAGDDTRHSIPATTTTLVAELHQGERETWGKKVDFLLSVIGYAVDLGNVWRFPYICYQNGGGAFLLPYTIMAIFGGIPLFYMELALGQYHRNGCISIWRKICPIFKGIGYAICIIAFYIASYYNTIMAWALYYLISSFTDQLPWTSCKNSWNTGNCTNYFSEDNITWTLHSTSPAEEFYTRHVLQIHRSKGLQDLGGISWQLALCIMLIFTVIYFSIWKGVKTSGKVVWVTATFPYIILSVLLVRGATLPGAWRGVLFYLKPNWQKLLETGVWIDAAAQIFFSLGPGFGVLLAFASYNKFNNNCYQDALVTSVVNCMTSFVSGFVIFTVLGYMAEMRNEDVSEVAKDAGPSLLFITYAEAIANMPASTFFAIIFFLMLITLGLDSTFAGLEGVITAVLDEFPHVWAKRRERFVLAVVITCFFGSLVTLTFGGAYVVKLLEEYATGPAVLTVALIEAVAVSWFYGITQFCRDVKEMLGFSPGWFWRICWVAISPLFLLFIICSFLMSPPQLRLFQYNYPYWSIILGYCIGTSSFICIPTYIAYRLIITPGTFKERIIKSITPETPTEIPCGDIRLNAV

IC50 [1] [nM]	IC50 [2] [nM]	IC50 [3] [nM]	h-α2C pIC50 [1]	h-5HTT pIC50 [2]	h-α2A pIC50 [3]	SMILES
1.26	794	12.6				C/C(=C\c1ccccc1)CN1CCC(Nc2nccn(-c3cccc(N4CCC(N5CCCC5)CC4)c3)c2=O)CC1 [2-18]
5.01	631	50.1				C/C(=C\c1ccccc1)CN1CCC(Nc2nccn(-c3ccc(N4CCC(N5CCCC5)CC4)cc3)c2=O)CC1 [2-19]
3.16	2510	63.1				C/C(=C\c1ccccc1)CN1CCC(Nc2nccn(CC(=O)N3CCN(C)CC3)c2=O)CC1 [2-20]
10	501	100				C/C(=C\c1ccccc1)CN1CCC(Nc2nccn(-c3ccc(C(=O)N4CCN(C)CC4)cc3)c2=O)CC1 [2-21]
25.1	> 10000	126				CC(=O)N1CCN(C(=O)Cn2ccnc(NC3CCN(C/C(C)=C/c4ccccc4)CC3)c2=O)CC1 [2-22]
			7.4	5.1	6.1	CC(=O)N1CCN(Cc2ccc(-n3ccnc(NC4CCN(C/C(C)=C/c5ccccc5)CC4)c3=O)cc2)CC1 [2-23]
3.16	5010	100				C=CCN1CCN(C(=O)Cn2ccnc(NC3CCN(C/C(C)=C/c4ccccc4)CC3)c2=O)CC1 [2-24]
7.94	501	126				C=CCN1CCN(C(=O)c2ccc(-n3ccnc(NC4CCN(C/C(C)=C/c5ccccc5)CC4)c3=O)cc2)CC1 [2-25]
7.94	794	126				C/C(=C\c1ccccc1)CN1CCC(Nc2nccn(CC(=O)N3CCN(c4ccccc4)CC3)c2=O)CC1 [2-26]
20	200	31.6				C/C(=C\c1ccccc1)CN1CCC(Nc2nccn(-c3cccc(N4CCN(c5ccccc5)CC4)c3)c2=O)CC1 [2-27]
15.8	794	100				C/C(=C\c1ccccc1)CN1CCC(Nc2nccn(-c3ccc(N4CCN(c5ccccc5)CC4)cc3)c2=O)CC1 [2-28]
31.6	100	158				C/C(=C\c1ccccc1)CN1CCC(Nc2nccn(CC(=O)N3CCN(c4ccc(C)c(C)c4)CC3)c2=O)CC1 [2-29]
2	794	79.4				C/C(=C\c1ccccc1)CN1CCC(Nc2nccn(CC(=O)N3CCN(Cc4ccccc4)CC3)c2=O)CC1 [2-30]
6.31	398	31.6				C/C(=C\c1ccccc1)CN1CCC(Nc2nccn(-c3cccc(N4CCN(Cc5ccccc5)CC4)c3)c2=O)CC1 [2-31]
12.6	1260	200				C/C(=C\c1ccccc1)CN1CCC(Nc2nccn(-c3ccc(C(=O)N4CCN(Cc5ccccc5)CC4)cc3)c2=O)CC1 [2-32]
15.8	200	126				C/C(=C\c1ccccc1)CN1CCC(Nc2nccn(-c3ccc(C(=O)N4CCN(CCc5ccccc5)CC4)cc3)c2=O)CC1 [2-33]
5.01	631	100				C/C(=C\c1ccccc1)CN1CCC(Nc2nccn(-c3ccc(C(=O)N4CCN(c5ncccn5)CC4)cc3)c2=O)CC1 [2-34]
31.6	2510	158				CCOC(=O)N1CCN(C(=O)Cn2ccnc(NC3CCN(C/C(C)=C/c4ccccc4)CC3)c2=O)CC1 [2-35]
10	1580	100				CCOC(=O)N1CCN(Cc2cccc(-n3ccnc(NC4CCN(C/C(C)=C/c5ccccc5)CC4)c3=O)c2)CC1 [2-36]
31.6	6310	398				CCOC(=O)N1CCN(Cc2ccc(-n3ccnc(NC4CCN(C/C(C)=C/c5ccccc5)CC4)c3=O)cc2)CC1 [2-37]
39.8	7940	158				C/C(=C\c1ccccc1)CN1CCC(Nc2nccn(CC(=O)N3CCN(C(=O)C4CCCO4)CC3)c2=O)CC1 (stereo not drawn) [2-38]
20	7940	316				C/C(=C\c1ccccc1)CN1CCC(Nc2nccn(CCN3CCOCC3)c2=O)CC1 [2-39]
12.6	3980	126				C/C(=C\c1ccccc1)CN1CCC(Nc2nccn(CC(=O)N3CCOCC3)c2=O)CC1 [2-41]

IC50 [1] [nM]	IC50 [2] [nM]	IC50 [3] [nM]	h-α2C pIC50 [1]	h-5HTT pIC50 [2]	h-α2A pIC50 [3]	SMILES
3.16	794	7.94				C/C(=C\c1ccccc1)CN1CCC(Nc2nccn(-c3cccc(N4CCOCC4)c3)c2=O)CC1 [2-42]
20	3980	126				C/C(=C\c1ccccc1)CN1CCC(Nc2nccn(-c3ccc(N4CCOCC4)cc3)c2=O)CC1 [2-43]
6.31	2000	50.1				C/C(=C\c1ccccc1)CN1CCC(Nc2nccn(-c3ccc(CN4CCOCC4)cc3)c2=O)CC1 [2-44]
10	794	50.1				C/C(=C\c1ccccc1)CN1CCC(Nc2nccn(Cc3cccc(CN4CCOCC4)c3)c2=O)CC1 [2-45]
3.98	794	31.6				C/C(=C\c1ccccc1)CN1CCC(Nc2nccn(-c3ccc(C(=O)N4CCOCC4)cc3)c2=O)CC1 [2-46]
31.6	3980	200				C/C(=C\c1ccccc1)CN1CCC(Nc2nccn(CCn3cccc3)c2=O)CC1 [2-47]
6.31	158	31.6				C/C(=C\c1ccccc1)CN1CCC(Nc2nccn(CN3C(=O)c4ccccc4C3=O)c2=O)CC1 [2-48]
15.8	1000	158				C/C(=C\c1ccccc1)CN1CCC(Nc2nccn(CCN3C(=O)c4ccccc4C3=O)c2=O)CC1 [2-49]
1	126	31.6				C/C(=C\c1ccccc1)CN1CCC(Nc2nccn(CCCN3C(=O)c4ccccc4C3=O)c2=O)CC1 [2-50]
3.98	158	100				C/C(=C\c1ccccc1)CN1CCC(Nc2nccn(CCCCN3C(=O)c4ccccc4C3=O)c2=O)CC1 [2-51]
2	31.6	50.1				C/C(=C\c1ccccc1)CN1CCC(Nc2nccn(C/C=C/CN3C(=O)c4ccccc4C3=O)c2=O)CC1 [2-52]
3.16	63.1	200				C/C(=C\c1ccccc1)CN1CCC(Nc2nccn(CC#CCN3C(=O)c4ccccc4C3=O)c2=O)CC1 [2-53]
6.31	50.1	126				C/C(=C\c1ccccc1)CN1CCC(Nc2nccn(CC#CCN3C(=O)c4ccccc4C3=O)c2=O)CC1 [2-54]
			8.0	6.6	6.8	C/C(=C\c1ccccc1)CN1CCC(Nc2nccn(-c3ccc(CN4C(=O)c5ccccc5C4=O)cc3)c2=O)CC1 [2-55]
			7.4	<5	6.6	C/C(=C\c1ccccc1)CN1CCC(Nc2nccn(CC(=O)O)c2=O)CC1 [3-1]
12.6	5010	79.4				C/C(=C\c1ccccc1)CN1CCC(Nc2nccn(-c3cccc(CO)c3)c2=O)CC1 [3-2]
			7.8	5.2	6.8	C/C(=C\c1ccccc1)CN1CCC(Nc2nccn(-c3ccc(CO)cc3)c2=O)CC1 [3-3]
79.4	> 10000	631				C/C(=C\c1ccccc1)CN1CCC(Nc2nccn(-c3ccc(C(=O)O)cc3)c2=O)CC1 [3-4]
63.1	3980	631				COCCCn1ccnc(NC2CCN(C/C(C)=C/c3ccccc3)CC2)c1=O [3-6]
10	7940	100				COC(=O)Cn1ccnc(NC2CCN(C/C(C)=C/c3ccccc3)CC2)c1=O [3-7]
15.8	794	79.4				COC(=O)CCCCn1ccnc(NC2CCN(C/C(C)=C/c3ccccc3)CC2)c1=O [3-8]
7.94	50.1	5.01				COc1ccc(-n2ccnc(NC3CCN(C/C(C)=C/c4ccccc4)CC3)c2=O)cc1 [3-9]
31.6	794	79.4				COc1cccc(Cn2ccnc(NC3CCN(C/C(C)=C/c4ccccc4)CC3)c2=O)c1 [3-10]

— patent publication US20090111801A1, “SUBSTITUTED PYRAZINONE DERIVATIVES FOR USE AS A MEDICINE” (Janssen Pharmaceutica N.V., priority 2006, published 2009)
